Data set [1] deals with primary hippocampal neurons. Nature of the data set: Antagonist pre-treatment studies of neuronal structural change, Sholl analysis. The class given is cell-based, rat. Particulars: for AUC of the Sholl plot / normalised AUC of the Sholl plot: vehicle pre-treated; for neuronal structural complexity (normalised AUC): meta-analysis, combined vehicle pre-treated groups. On the procedure: Primary hippocampal cultures were grown on 18 mm glass coverslips at a density of 1×10^6 cells as described. On 3 DIV all cells underwent a full medium change. […] On 4 DIV, all cells underwent a second full medium change. Cells in the combination group were treated with 2 μM 5-MeO-DMT for a further 24 hours with all other groups beginning a 24-hour treatment. After treatment was completed the cells were fixed and processed as described below.
Based on the findings with other psychedelic drugs that share structural and behavioral similarities to 5-MeO-DMT we selected ANA-12 (Sigma), an antagonist of TrkB, the BDNF receptor, and rapamycin (ThermoFischer) an antagonist of the mammalian target of rapamycin (mTOR). Due to the affinity and known behavioral change induced by 5-MeO-DMT at the 5-HT1AR and 5-HT2AR we assessed their contribution to structural changes mediated by 5-MeO-DMT. The receptors were antagonized with WAY-100635 maleate (Tocris) or Ketanserin (Axxora), respectively. For all antagonist studies the antagonist under investigation was added 15 mins prior to drug treatment. […] ANA-12, Ketanserin and rapamycin were dissolved in dimethyl sulfoxide (DMSO) with a final concentration of 0.01-0.04% for treatment. WAY100635 was dissolved in sterile dH2O.
After termination of drug treatment coverslips were processed and imaged as outlined for immunocytochemistry. In all instances NeuN antibody staining was used to visualize projections from the cell body. Images were analyzed using the Simple Neurite Tracer and Sholl analysis plug-ins for ImageJ Fiji. For the Sholl analysis circle radii of 2 μm increments were used. All images were taken and analyzed by an experimenter blinded to treatment conditions.
Statistical Analysis—Data are represented as mean±SEM. Statistical analyses were performed using GraphPad Prism (version 5). For analyses involving comparison of three or more groups, a one-way ANOVA with Bonferroni's post-hoc test was utilized where appropriate. No statistics were calculated for the individual points of the Sholl plots, instead, statistical analyses were performed on the aggregate data, the area under the curve (AUC) of the Sholl plot. Secondary measurements were the Nmax, the maximum number of intersections measured by the Sholl analysis, which indicated the number of projections emanating from a neuron and the average length of primary neurites originating from the cell soma.

A further data set deals with 5-HT2AR (Rattus norvegicus, UniProt P14842). Particulars: read-out: Ki for the 5-HT2AR; non-canonical signaling, liberation of arachidonic acid; cited from earlier work.
For data set [2] the following is noted: cited from earlier work.
A further data set deals with rats. Nature of the data set: Pre-pulse inhibition of startle. Particulars: for treatment effects on PPI: cohort 1 (20 mg/kg 5-MeO-DMT). The class given is in vivo. As to the method:
In this instance the animals were 9 weeks old at the initiation of drug exposures and we selected just the high (20 mg/kg) dose of 5-MeO-DMT from the molecular study. […] Due to the number of behavioral paradigms to be completed by each animal we divided the study into two cohorts staggered by two weeks with 8 animals coming from each cohort to make up the 16 animals for each treatment group. 23 hours after 5-MeO-DMT administration the animals were introduced to the open field arena where they were allowed to freely explore the area for 5 mins. Following the open field test (OFT) animals were returned to their home cage for 2 hours before beginning either the elevated plus maze (EPM) or pre-pulse inhibition (PPI) testing. 24 hours after completing the OFT animals were returned to the chamber for the first session in novel object (NO1) testing. The animals were returned to their home cage for 2 hours before beginning the EPM or PPI test. 24 hours after NO1 the animals returned to the open field chamber for the second session in novel object (N02) testing. After completing N02 animals were returned to their home cage for 2 hours before they underwent the forced swim test (FST) pre-test. 24 hours later the animals were returned to the FS cylinders for the FST. Upon completion of the FST all animals were euthanized. A timeline of this experimental cohort is described in FIG. 8A.
The experiment was conducted as described for cohort 1 for the first 13 days of injections. There are a number of notable differences in experimental procedures between the two cohorts of animals to be highlighted. […] Finally, the dose of 5-MeO-DMT was reduced to 10 mg/kg. The order and timing of all the behavioral paradigms were kept constant between the cohorts. A timeline of this experimental cohort is described in FIG. 8B. Additionally, 5-MeO-DMT administrations were staggered so animals could be observed for the duration of acute drug effects and to ensure recovery prior to the next animal being injected. The typical symptoms of psychedelic drug administration outlined above were reproduced in all animals administered 5-MeO-DMT.
The PPI protocol employed was based on a procedure previously described by Geyer and colleagues (Geyer, M. A., K. Krebs-Thomson, D. L. Braff & N. R. Swerdlow (2001) Pharmacological studies of prepulse inhibition models of sensorimotor gating deficits in schizophrenia: a decade in review. Psychopharmnacology, 156, 117-154). Each rat was restrained in an appropriately sized cylindrical holder that was placed on a movement-sensitive platform and maintained in a soundproof chamber. The animal was allowed to habituate to a white noise background of 70 dB for 5 mins before receiving 5 20 ms startle trials of 120 dB separated by randomized intervals of 10-20 s. Immediately thereafter, each rat received 5 separate presentations with one of the pre-pulse stimuli of 72, 76, 80, or 84 dB followed 100 ms later by the 120 dB acoustic startle stimulus. Each trial was separated by a time interval of 10-20 s. The 4 pre-pulse stimuli were delivered in a randomised manner and included periods in which there was no pre-pulse or startle stimulus. The session terminated with five further startle trials. Randomisation of the sound signals delivered and quantification of the startle movements were recorded from the movement-sensitive platform. Signals were integrated using the software supplied by the manufacturers of equipment hardware (MED-Associates Inc., St. Albans, VT, USA).

For another data set, the system named is H3K9Me2. Particulars: repeated cocaine; cited from earlier work.
[3] abbreviates: ANA-12 study, 5-MeO-DMT or cocaine alone.
Setting [4] is: WAY100635 study, 5-MeO-DMT (20 μM) or cocaine (25 μM) alone.
Where [5] appears, read: rapamycin study, 5-MeO-DMT or cocaine alone.

The values that follow come from patent US20240299353A1, “COMPOSITIONS AND METHODS FOR TREATING […] 5-MEO-DMT” (Alvarius Pharmaceuticals Ltd., priority 2021, published 2024).

Sequence of 5-HT2AR (P14842 whole entry): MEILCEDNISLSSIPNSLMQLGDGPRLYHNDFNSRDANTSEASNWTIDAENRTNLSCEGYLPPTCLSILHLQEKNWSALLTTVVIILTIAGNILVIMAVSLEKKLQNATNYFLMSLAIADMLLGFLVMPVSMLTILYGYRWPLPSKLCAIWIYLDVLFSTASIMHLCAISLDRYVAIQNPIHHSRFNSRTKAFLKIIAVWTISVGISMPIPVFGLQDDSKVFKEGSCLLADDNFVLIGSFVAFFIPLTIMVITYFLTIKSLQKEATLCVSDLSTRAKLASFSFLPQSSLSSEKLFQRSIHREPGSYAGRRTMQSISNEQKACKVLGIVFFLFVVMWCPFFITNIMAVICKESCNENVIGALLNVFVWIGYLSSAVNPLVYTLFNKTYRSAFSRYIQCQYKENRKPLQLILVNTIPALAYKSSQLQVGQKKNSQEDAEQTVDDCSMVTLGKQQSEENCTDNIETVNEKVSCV

For orientation: Ki means a measure of affinity in units of concentration, obtained from inhibition or displacement. For `COc1ccc2[nH]cc(CCN(C)C)c2c1` [5-MeO-DMT, 5-methoxy-N,N-dimethyltryptamine], the “AUC of the Sholl plot” value in data set [1] (setting [3]) is reported as “increased the AUC relative to control”; in data set [1] (ANA-12 study, cocaine and 5-MeO-DMT combined), “increased the AUC relative to control”. Moreover, the average neurite length entry was “significantly increased” in data set [1] (ANA-12 study, 5-MeO-DMT alone); “significantly increased” in data set [1] (ANA-12 study, 5-MeO-DMT in combination with cocaine); “significantly increased” in data set [1] (WAY100635 study, 5-Meo+vehicle). Besides, the “normalised AUC of the Sholl plot” value is “increased the normalised AUC” in data set [1] (setting [4]); “no change between the combination group and control” in data set [1] (WAY100635 study, cocaine followed by 5-MeO-DMT); “reduced AUC relative to control” in data set [1] (ketanserin study, cocaine followed by 5-MeO-DMT); “increased the normalised AUC” in data set [1] (setting [5]); “no change between the combination group and control” in data set [1] (rapamycin study, cocaine followed by 5-MeO-DMT). Moreover, the “neuronal structural complexity (normalised AUC)” value in data set [1] (agent alone) and in data set [1] (cocaine+5-MeO-DMT combination) was “significantly increased neuronal structural complexity” in each case. Further, the Ki on 5-HT2AR was 190 nM. For the same molecule, the blood-brain barrier passage result in data set [2] (rat brain regions) is listed as “readily crosses the blood-brain barrier”. The “brain drug concentrations with increase in dose” value in data set [2] (throughout the brain) is “increased non-proportionally”. Moreover, the “treatment effects on PPI” value in the data set on rats is reported as “no treatment effects on PPI”. The “inhibition of the startle response at 80 dB or 84 dB relative to the 72 dB pre-pulse” value with rats (cohort 1, 5-Meo-treated animals) is given as “significant increase in the inhibition of the startle response”. Also, the “percentage inhibition of startle with change in intensity of the pre-pulse” value with rats (cohort 1, cocaine+20 mg/kg 5-MeO-DMT combination) is reported as “no change in percentage inhibition of startle”. Besides, the “PPI at the 80 dB pre-pulse” value in the data set with rats (cohort 1, combination group relative to control and 5-MeO-DMT alone) is on record as “significant attenuation of PPI”. Moreover, in the data set with rats (cohort 2 (10 mg/kg 5-MeO-DMT)), the “treatment effect on PPI” value is given as “no treatment effect on PPI”. For the same molecule, in the data set on rats (cohort 2, cocaine+10 mg/kg 5-MeO-DMT), the “PPI at 84 dB relative to 72 dB pre-pulse” value was “significant increase in PPI”.

Turning to `COC(=O)[C@H]1[C@@H](OC(=O)c2ccccc2)C[C@@H]2CC[C@H]1N2C.Cl` [cocaine, cocaine hydrochloride, reference compound], in data set [1] (setting [3]), the “AUC of the Sholl plot” value is “increased the AUC relative to control”. Moreover, the “normalised AUC of the Sholl plot” value in data set [1] (setting [4]) and in data set [1] (setting [5]) was “increased the normalised AUC” in each case. Moreover, in data set [1] (agent alone), the “neuronal structural complexity (normalised AUC)” value was “significantly increased neuronal structural complexity”. For the same molecule, the “decrease in H3K9Me2 expression” value in the data set with H3K9Me2 is 15%. Moreover, the “treatment effects on PPI” value in the data set on rats is “no treatment effects on PPI”. For the same molecule, the “percentage inhibition of startle with change in intensity of the pre-pulse” value with rats (cohort 1, cocaine alone) is “no change in percentage inhibition of startle”.
